Columns and labels:
[1] = tested on: human patients with chronic knee osteoarthritis; assay: Procedural pain ratings (none, mild, moderate, moderately severe, severe) after intra-articular injection (Example 2); type: in vivo; details: 2 hours after injection of capsaicin (or placebo); all groups
Source text: (§1) Safety assessments included treatment-emergent adverse events (TEAEs), serious AEs (SAEs), laboratory abnormalities, and procedural pain ratings (none, mild, moderate, moderately severe, severe). The procedure pain ratings characterize the extent of transient burning sensation experienced by patients due to administration of capsaicin.

[2] = tested on: osteoarthritic knee joint pain; assay: WOMAC C function subscale (Example 2); type: in vivo, human; details: 1.0 mg dose; through week 16; P=0.02
Protocol: (§2) Human patients aged 45-80 years with chronic knee osteoarthritis, stable moderate to severe pain, and intolerability to analgesics were randomized to receive a single intra-articular injection of placebo into the osteoarthritic knee, a single intra-articular injection of a 0.5 mg dose of capsaicin into the osteoarthritic knee, or a single intra-articular injection of a 1.0 mg dose of capsaicin into the osteoarthritic knee.
(§3) Patients completed Patient Global Impression of Change (PGIC; change vs baseline in index knee on 7-point scale: 1=very much improved; 7=very much worse, with scores of 1 or 2 indicating significant improvement) and Patient-specific Functional Scale (PSFS; rate≤3 important activities difficult to perform due to index knee pain on 0-10 scale: 0=able to perform; 10=unable to perform) at scheduled visits. Odds ratios for PGIC scores were calculated with chi-square tests. Changes in Western Ontario and McMaster Universities Osteoarthritis Index (WOMAC) B stiffness subscale and WOMAC C function subscale through week 24 were also assessed. PSFS, WOMAC B, and WOMAC C scores were evaluated using a mixed model for repeated measures. Statistical tests were 2-sided (alpha, P=0.10).

[3] = tested on: osteoarthritic knee joint pain; assay: Patient Global Impression of Change (PGIC), index knee (Example 2); type: in vivo, human; details: for PGIC: proportion of patients reporting significant improvement in the index knee: week 4, placebo 44%
Protocol: as §2, §3

[4] = tested on: osteoarthritic knee joint pain; assay: WOMAC B stiffness subscale (Example 2); type: in vivo, human; details: 1.0 mg dose; through week 16; P=0.007
Protocol: as §2, §3

[5] = tested on: human patients with bilateral knee osteoarthritis; assay: Procedure pain (NPRS) due to intraarticular trans-capsaicin, Breg pad vs ice pack cooling (Example 7); type: in vivo; details: Breg Knee WrapOn Polar Pad cooling compared to ice-pack cooling (Example 7)
Protocol: Human patients experiencing osteoarthritic knee joint pain were subjected to two different protocols for intraarticular administration of trans-capsaicin. Temporary pain expected due to administration of capsaicin was analyzed, along with the intraarticular temperature of the knee joint and the temperature of the patient's skin in the area to be cooled.
(§4) One of the protocols utilized a Breg Knee WrapOn Polar Pad (as illustrated in FIG. 1) that utilizes circulating ice-water to achieve cooling, where the pad is placed on skin surrounding the knee in order to cool the knee joint. The other protocol utilized ice-pack cooling, in which the patient's knee was wrapped with a stockinette and then the ice pack was positioned on top of the stockinette so that the ice pack is positioned over the patient's patella to thereby cool the knee joint. The ice pack was a LEADSTAR pain relief reusable cold therapy ice pack (size=6 inches). A temperature probe was placed into the intraarticular space of the patient's knee joint to measure intraarticular temperature of the knee joint. A temperature probe was also placed on the skin in the area to be cooled in order to measure skin temperature in the area to be cooled.
Five human patients suffering from moderate to severe painful bilateral knee osteoarthritis were recruited for this study evaluating the impact that cooling protocol has on the magnitude of temporary pain experienced by the patient due to administration of capsaicin. […] Patients that participated in the study passed the following screening criteria and meet the patient inclusion and exclusion criteria are set forth below. As part of patient screening, patients received an intradermal injection of 100 μL (100 μg) capsaicin into the non-dominant volar forearm. To be eligible to enter the study, patients were able to tolerate the capsaicin injection. Screening patients rated the pain from capsaicin injection at 5, 10, 20, and 30 minutes after injection using a 0-10 Numerical Pain Rating Scale, where “0” equals no pain and “10” equals worst possible pain.
as §4, with “ice pack (having a surface for application to the patient, wherein said surface has a diameter of approximately six inches) is positioned” for “ice pack is positioned”, “knee joint. A temperature” for “knee joint. The ice pack was a LEADSTAR pain relief reusable cold therapy ice pack (size=6 inches). A temperature”, “knee joint. At the discretion of the physician performing the procedure, in order to reduce discomfort for the patient, the protocol authorized the physician to instill a volume of 1-2 cc of 2% w/w lidocaine (without epinephrine) into the skin and subcutaneous tissue of the knee at the site of intra-articular probe insertion. A temperature” for “knee joint. A temperature”
One the first day of the study, patients were randomized so that (i) three patients receiving cooling of the knee joint using the Breg Knee WrapOn Polar Pad and (ii) two patients will receive ice-pack cooling over the patella as set forth above. Patients were subjected to the following procedure: • Placement of intraarticular temperature probe and skin temperature probe. […]

[6] = tested on: human patients with chronic knee osteoarthritis; assay: Treatment-emergent adverse events, SAEs and laboratory abnormalities after single intra-articular injection (Example 2); type: in vivo; details: for All TEAEs, (%) / Arthralgia TEAE, (%) / Hepatic enzyme increased TEAE, (%) / Influenza TEAE, (%) / Joint effusion TEAE, (%) / Nasopharyngitis TEAE, (%) / Upper respiratory tract infection TEAE, (%): through 24 weeks
Protocol: Human patients experiencing osteoarthritic knee joint pain received either placebo, a 0.5 mg intra-articular injection of capsaicin into the osteoarthritic knee joint, or a 1.0 mg intra-articular injection of capsaicin into the osteoarthritic knee joint. […]
as §2, §1

[7] = tested on: osteoarthritic knee joint pain; assay: Patient-specific Functional Scale (PSFS) (Example 2); type: in vivo, human
Protocol: as §2, §3

[8] = Capsaicin at 0.5 mg Dose, Week 4
[9] = Capsaicin at 0.5 mg Dose, Week 8
[10] = Capsaicin at 0.5 mg Dose, Week 12
[11] = Capsaicin at 0.5 mg Dose, Week 16
[12] = Capsaicin at 0.5 mg Dose, Week 24
[13] = Capsaicin at 1.0 mg Dose, Week 4
[14] = Capsaicin at 1.0 mg Dose, Week 8
[15] = Capsaicin at 1.0 mg Dose, Week 12
[16] = Capsaicin at 1.0 mg Dose, Week 16
[17] = Capsaicin at 1.0 mg Dose, Week 24
[18] = Capsaicin 1.0 mg Dose (n = 71), listed as capsaicin
[19] = Capsaicin at Either 0.5 mg or 1.0 Dose (n = 105)
[20] = Capsaicin at Either 0.5 mg or 1.0 Dose (n = 105), listed as capsaicin

In the case of `COc1cc(CNC(=O)CCCCC=CC(C)C)ccc1O` [Capsaicin, N-[(4-hydroxy-3-methoxyphenyl)methyl]-8-methylnon-6-enamide], the “Patients reporting mild procedural pain” value [1] is reported as 39%, the “Patients reporting no procedural pain” value [1] is reported as 50% and the “WOMAC C score, least squares mean difference versus placebo” value [2] is reported as −14.8. The “PGIC: proportion of patients reporting significant improvement in the index knee” value ([3]; 0.5 mg dose, P=0.18) was 58%, the “PGIC: proportion of patients reporting significant improvement in the index knee” value ([3]; 1.0 mg dose, P=0.01) was 64% and the “PGIC: likelihood of significant improvement compared with placebo” value ([3]; 1.0 mg dose, weeks 4, 8 and 12) was “greater than two-fold likelihood”. For the same compound, the “PGIC: Odds Ratio vs Placebo” value [3, 8] was 1.76 (P = 0.18), the “PGIC: Odds Ratio vs Placebo” value [3, 9] was 1.89 (P = 0.14) and the “PGIC: Odds Ratio vs Placebo” value [3, 10] was 2.75 (P = 0.03). For the same compound, the “PGIC: Odds Ratio vs Placebo” value [3, 11] was 2.37 (P = 0.05), the “PGIC: Odds Ratio vs Placebo” value [3, 12] was 1.68 (P = 0.23) and the “PGIC: Odds Ratio vs Placebo” value [3, 13] was 2.34 (P = 0.01). The “PGIC: Odds Ratio vs Placebo” value [3, 14] was 2.50 (P = 0.008), the “PGIC: Odds Ratio vs Placebo” value [3, 15] was 2.40 (P = 0.01) and the “PGIC: Odds Ratio vs Placebo” value [3, 16] was 1.85 (P = 0.07). The “PGIC: Odds Ratio vs Placebo” value [3, 17] was 1.64 (P = 0.15), the “WOMAC B score, least squares mean difference versus placebo” value [4] was −2.1 and the “Pain due to capsaicin injection, comparison of cooling methods” value [5] was “less when Breg Knee WrapOn Polar Pad cooling was used”. For the same compound, the “All TEAEs, (%)” value ([6]; Capsaicin 0.5 mg Dose (n = 34)) was “(47) %”, the “Arthralgia TEAE, (%)” value ([6]; Capsaicin 0.5 mg Dose (n = 34)) was “(8.8) %” and the “Hepatic enzyme increased TEAE, (%)” value ([6]; Capsaicin 0.5 mg Dose (n = 34)) was “(5.9) %”. The “Influenza TEAE, (%)” value ([6]; Capsaicin 0.5 mg Dose (n = 34)) was “(2.9) %”, the “Joint effusion TEAE, (%)” value ([6]; Capsaicin 0.5 mg Dose (n = 34)) was “(8.8) %” and the “Nasopharyngitis TEAE, (%)” value ([6]; Capsaicin 0.5 mg Dose (n = 34)) was “(2.9) %”. The “Upper respiratory tract infection TEAE, (%)” value ([6]; Capsaicin 0.5 mg Dose (n = 34)) was “(5.9) %”, the “All TEAEs, (%)” value ([6]; Capsaicin 0.5 mg Dose (n = 34), listed as capsaicin) was 47% and the “All TEAEs, (%)” value ([6]; Capsaicin 1.0 mg Dose (n = 71)) was “(30) %”. For the same compound, the “Arthralgia TEAE, (%)” value ([6]; Capsaicin 1.0 mg Dose (n = 71)) was “(7.0) %”, the “Hepatic enzyme increased TEAE, (%)” value ([6]; Capsaicin 1.0 mg Dose (n = 71)) was “(1.4) %” and the “Influenza TEAE, (%)” value ([6]; Capsaicin 1.0 mg Dose (n = 71)) was “(2.8) %”. The “Nasopharyngitis TEAE, (%)” value ([6]; Capsaicin 1.0 mg Dose (n = 71)) was “(2.8) %”, the “Upper respiratory tract infection TEAE, (%)” value ([6]; Capsaicin 1.0 mg Dose (n = 71)) was “(4.2) %” and the “All TEAEs, (%)” value [6, 18] was 30%. The “Arthralgia TEAE, (%)” value [6, 18] was 7.0%, the “All TEAEs, (%)” value [6, 19] was “(35) %” and the “Arthralgia TEAE, (%)” value [6, 19] was “(7.6) %”. The “Hepatic enzyme increased TEAE, (%)” value [6, 19] was “(2.9) %”, the “Influenza TEAE, (%)” value [6, 19] was “(2.9) %” and the “Joint effusion TEAE, (%)” value [6, 19] was “(2.9) %”. The “Nasopharyngitis TEAE, (%)” value [6, 19] was “(2.9) %”, the “Upper respiratory tract infection TEAE, (%)” value [6, 19] was “(4.8) %” and the “Arthralgia TEAE, (%)” value [6, 20] was 7.6%. For the same compound, the “Upper respiratory tract infection TEAE, (%)” value [6, 20] was 4.8%, the Laboratory abnormalities ([6]; all groups, most mild and associated with comorbidities) was “Few laboratory abnormalities were observed” and the “TEAEs mild in severity, patients” value ([6]; capsaicin 0.5 mg dose group) was 29%. The “TEAEs moderate in severity, patients” value ([6]; capsaicin 0.5 mg dose group) was 18%, the “Serious AEs (SAEs)” value ([6]; capsaicin 0.5 mg dose group, not considered treatment related) was “One SAE (shoulder pain from osteoarthritis)” and the “TEAEs mild in severity, patients” value ([6]; capsaicin 1.0 mg dose group) was 20%. For the same compound, the “TEAEs moderate in severity, patients” value ([6]; capsaicin 1.0 mg dose group) was 9.9%, the “Tolerability / safety profile” value ([6]; single injection 1.0 mg dose, up to 24 weeks) was “well tolerated with a safety profile generally comparable to placebo” and the “PSFS: ability to perform activities versus placebo” value ([7]; 1.0 mg dose, weeks 4-16) was “significantly improved patients' ability to perform activities versus placebo”. The “PSFS: LSMD versus Placebo” value [7, 8] was 0.01 (P = 0.98), the “PSFS: LSMD versus Placebo” value [7, 9] was −0.03 (P = 0.96) and the “PSFS: LSMD versus Placebo” value [7, 10] was −0.4 (P = 0.40). The “PSFS: LSMD versus Placebo” value [7, 11] was −0.5 (P = 0.35), the “PSFS: LSMD versus Placebo” value [7, 12] was −0.05 (P = 0.93) and the “PSFS: LSMD versus Placebo” value [7, 13] was −1.4 (P = 0.0006). For the same compound, the “PSFS: LSMD versus Placebo” value [7, 14] was −0.9 (P = 0.03), the “PSFS: LSMD versus Placebo” value [7, 15] was −1.1 (P = 0.007) and the “PSFS: LSMD versus Placebo” value [7, 16] was −0.9 (P = 0.04). For the same compound, the “PSFS: LSMD versus Placebo” value [7, 17] was −0.5 (P = 0.27) and the “Improvement in physical function versus placebo” value ([7]; single injection 1.0 mg dose, moderate to severe osteoarthritis knee pain) was “statistically significant improvements in physical function for 12-16 weeks”.
